Measured values: patent US8546343B2, “Aminoglycoside antibiotics targeting bacterial 16S ribosomal RNA” (Eidgenoessische Technische Hochschule Zurich, priority 2007, dated 2013)
In brackets after ≈: the same amount, converted by molar mass.

Columns and labels:
[1] = system: AG019 E. faecalis JH2-2 (APH2″ AAC6′); assay: Standard MIC assay, AG019; format: cell-based, Enterococcus faecalis; details: E. faecalis JH2-2 (APH2″ AAC6′)
Method: (§1) Selected compounds of the present invention were tested for antibiotic susceptibility using clinical isolates of Staphylococci, Enterococci and Escherichia coli as well as strains carrying defined resistance determinants and compared to well known antibiotics of the state of the art. Drug susceptibility was determined in standard MIC assays, i.e. by determination of the minimal drug concentration required to inhibit bacterial growth in vitro.

[2] = system: AG001 E. coli clinical isolate; assay: Standard MIC assay, AG001; format: cell-based, Escherichia coli
Method: as §1

[3] = system: AG007 E. coli BM13 (AAC3); assay: Standard MIC assay, AG007; format: cell-based, Escherichia coli; details: E. coli BM13 (AAC3)
Method: as §1

[4] = system: M. smegmatis ΔrrnB 1491A (16S rRNA position 1491 A, eukaryotic cytosolic ribosomes); assay: MIC, recombinant M. smegmatis with mutant ribosomes 1491A; format: cell-based, Mycobacterium smegmatis; details: M. smegmatis ΔrrnB 1491A mutant ribosomes; 72 h at 37° C.
In short: (§2)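 M. smegmatis single-rRNA-operon strain carrying the indicated 16S rRNA decoding-site alleles, introduced into the chromosomal operon and confirmed by sequencing. Colony-purified cultures were grown in LB with 0.05% Tween 80 and started at OD600 0.025. MIC was read in microtiter format against twofold drug dilutions.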

[5] = system: AG013 Staph. epi. clinical isolate; assay: Standard MIC assay, AG013; format: cell-based, Staphylococcus epidermidis
Method: as §1

[6] = system: M. smegmatis ΔrrnB (bacterial ribosomes); assay: MIC, recombinant M. smegmatis with bacterial (wild-type) ribosomes; format: cell-based, Mycobacterium smegmatis; details: 72 h at 37° C.
In short: as §2

[7] = system: AG016 S. aureus BM3002; assay: Standard MIC assay, AG016; format: cell-based, Staphylococcus aureus
Method: as §1

[8] = system: AG014 Staph. epi. clinical isolate; assay: Standard MIC assay, AG014; format: cell-based, Staphylococcus epidermidis
Method: as §1

[9] = system: M. smegmatis ΔrrnB 1408G (16S rRNA position 1408 G, eukaryotic cytosolic ribosomes); assay: MIC, recombinant M. smegmatis with mutant ribosomes 1408G; format: cell-based, Mycobacterium smegmatis; details: M. smegmatis ΔrrnB 1408G mutant ribosomes; 72 h at 37° C.
In short: as §2

[10] = system: AG011 Staph. aureus clinical isolate; assay: Standard MIC assay, AG011; format: cell-based, Staphylococcus aureus
Method: as §1

[11] = system: AG017 E. faecalis JH2-2; assay: Standard MIC assay, AG017; format: cell-based, Enterococcus faecalis
Method: as §1

[12] = system: AG004 E. coli clinical isolate; assay: Standard MIC assay, AG004; format: cell-based, Escherichia coli
Method: as §1

[13] = system: AG015 S. aureus BM3002 (ANT4′); assay: Standard MIC assay, AG015; format: cell-based, Staphylococcus aureus; details: S. aureus BM3002 (ANT4′)
Method: as §1

[14] = system: AG003 E. coli clinical isolate; assay: Standard MIC assay, AG003; format: cell-based, Escherichia coli
Method: as §1

[15] = system: AG009 E. coli BM13 AAC(6′)-1B; assay: Standard MIC assay, AG009; format: cell-based, Escherichia coli; details: E. coli BM13 AAC(6′)-1B
Method: as §1

[16] = system: M. smegmatis ΔrrnB 1491C (16S rRNA position 1491 C, eukaryotic mitochondrial ribosome); assay: MIC, recombinant M. smegmatis with mutant ribosomes 1491C; format: cell-based, Mycobacterium smegmatis; details: M. smegmatis ΔrrnB 1491C mutant ribosomes; 72 h at 37° C.
In short: as §2

[17] = system: AG006 E. coli BM13; assay: Standard MIC assay, AG006; format: cell-based, Escherichia coli
Method: as §1

[18] = system: AG008 E. coli BM13 (ANT2″); assay: Standard MIC assay, AG008; format: cell-based, Escherichia coli; details: E. coli BM13 (ANT2″)
Method: as §1

[19] = system: AG002 E. coli clinical isolate; assay: Standard MIC assay, AG002; format: cell-based, Escherichia coli
Method: as §1

Structure (SMILES) | Minimal inhibitory concentrations AG019 [1] [µg/mL] | Minimal inhibitory concentrations AG001 [2] [µg/mL] | Minimal inhibitory concentrations AG007 [3] [µg/mL] | minimal inhibitory concentrations ΔrrnB 1491A [4] | Minimal inhibitory concentrations AG013 [5] [µg/mL] | minimal inhibitory concentrations ΔrrnB [6] [µg/mL] | Minimal inhibitory concentrations AG016 [7] [µg/mL] | Minimal inhibitory concentrations AG014 [8] [µg/mL] | minimal inhibitory concentrations ΔrrnB 1408G [9] | Minimal inhibitory concentrations AG011 [10] [µg/mL] | Minimal inhibitory concentrations AG017 [11] [µg/mL] | Minimal inhibitory concentrations AG004 [12] [µg/mL] | Minimal inhibitory concentrations AG015 [13] [µg/mL] | Minimal inhibitory concentrations AG003 [14] [µg/mL] | Minimal inhibitory concentrations AG009 [15] [µg/mL] | minimal inhibitory concentrations ΔrrnB 1491C [16] | Minimal inhibitory concentrations AG006 [17] [µg/mL] | Minimal inhibitory concentrations AG008 [18] [µg/mL] | Minimal inhibitory concentrations AG002 [19] [µg/mL]
NC[C@@H]1O[C@H](O[C@H]2[C@@H](O)[C@H](O[C@@H]3[C@@H](O)[C@H](N)C[C@H](N)[C@H]3O[C@H]3O[C@@H]4CO[C@@H](c5ccccc5)O[C@H]4[C@H](O)[C@H]3N)O[C@@H]2CO)[C@H](N)[C@@H](O)[C@@H]1O [Compound 5.1, 4′,6′-O-benzylideneparomomycin] | 256 (≈ 364 µM) | 64 (≈ 90.9 µM) | 32 (≈ 45.5 µM) | 512 µg/mL | 8 to 16 | 4 | 16 to 32 | 8 (≈ 11.4 µM) | 512 µg/mL | 8 (≈ 11.4 µM) | 32 to 64 | 32 to 64 | 32 to 64 | 32 (≈ 45.5 µM) | 128 (≈ 182 µM) | >512 µg/mL | 32 (≈ 45.5 µM) | 32 (≈ 45.5 µM) | 64 (≈ 90.9 µM)
NC[C@@H]1O[C@H](O[C@H]2[C@@H](O)[C@H](O[C@@H]3[C@@H](O)[C@H](N)C[C@H](N)[C@H]3O[C@H]3O[C@@H]4CO[C@@H](c5ccc(C(F)(F)F)cc5)O[C@H]4[C@H](O)[C@H]3N)O[C@@H]2CO)[C@H](N)[C@@H](O)[C@@H]1O [Compound 5.17, 4′,6′-O-p-Trifluoromethylbenzylideneparomomycin] | 128 (≈ 166 µM) | 32 to 64 | 32 (≈ 41.5 µM) | 512 µg/mL | 4 to 8 | 2 to 4 | 8 (≈ 10.4 µM) | 4 (≈ 5.18 µM) | >512 µg/mL | 4 (≈ 5.18 µM) | 32 (≈ 41.5 µM) | 32 (≈ 41.5 µM) | 32 (≈ 41.5 µM) | 32 to 64 | 64 to 128 | 512 µg/mL | 32 (≈ 41.5 µM) | 32 (≈ 41.5 µM) | 32 to 64
NC[C@@H]1O[C@H](O[C@H]2[C@@H](O)[C@H](O[C@@H]3[C@@H](O)[C@H](N)C[C@H](N)[C@H]3O[C@H]3O[C@@H]4CO[C@@H](CCc5ccccc5)O[C@H]4[C@H](O)[C@H]3N)O[C@@H]2CO)[C@H](N)[C@@H](O)[C@@H]1O [Compound 5.25, 4′,6′-O-(3-Phenyl)-propylideneparomomycin] | 32 (≈ 43.7 µM) | 32 to 64 | 16 to 32 | ≧512 μg/ml | 4 to 8 | 1 | 8 (≈ 10.9 µM) | 4 (≈ 5.47 µM) | 512 µg/mL | 4 (≈ 5.47 µM) | 8 (≈ 10.9 µM) | 32 (≈ 43.7 µM) | 8 to 16 | 32 (≈ 43.7 µM) | 64 to 128 | ≧512 μg/ml | 16 to 32 | 32 (≈ 43.7 µM) | 32 to 64
NC[C@@H]1O[C@H](O[C@H]2[C@@H](O)[C@H](O[C@@H]3[C@@H](O)[C@H](N)C[C@H](N)[C@H]3O[C@H]3O[C@@H]4COC(C=Cc5ccccc5)O[C@H]4[C@H](O)[C@H]3N)O[C@@H]2CO)[C@H](N)[C@@H](O)[C@@H]1O (stereo partly shown) [Compound 5.26, 4′,6′-O-(3-Phenyl)-propenylideneparomomycin] | 64 to 128 | 32 to 64 | 32 (≈ 43.8 µM) | ≧512 μg/ml | 4 to 8 | 2 to 4 | 8 (≈ 11 µM) | 4 (≈ 5.48 µM) | ≧512 μg/ml | 4 (≈ 5.48 µM) | 16 to 32 | 32 (≈ 43.8 µM) | 16 to 32 | 32 (≈ 43.8 µM) | 128 (≈ 175 µM) | ≧512 μg/ml | 32 (≈ 43.8 µM) | 32 (≈ 43.8 µM) | 64 (≈ 87.7 µM)
